Structures are written as SMILES. Where only a bound is given, the exact number is not on record here.

A word on the IC50: it is the point on the concentration scale where inhibition reaches its midpoint. A low value points to greater potency.

This assay addresses EGFR (Homo sapiens, UniProt P00533). The assay is described as follows: Biochemical EGFR assay (ELISA, A431 cell lysate). The settings on record: A431 cell lysate as EGFR source. Details: Add 7 μg A431 cell lysate per well (EGFR source); endogenous in cells; host or cells: A431 cell lysate, captured on 05-101 anti-EGFR antibody. The text has this: The following protocol describes the procedures used to analyze protein tyrosine kinase activity on the EGFR in an Elisa. The procedure also describes the protocol for the initial screening of drugs for inhibition or activation of protein tyrosine kinase activity.
A431 cells are available from a variety of commercial sources and may be used lysed using conventional methods known to those skilled in the art or as described for lysis of the 3T3 cells in the EGF cellular assay described herein. −80° C., 1 mL aliquots
1. Coat Corning 96-well elisa plates with 0.5 μg per well 05-101 antibody. Bring final volume to 100 μL per well with PBS. Coat plates overnight at 4° C.
5. Add 7 μg A431 cell lysate per well (EGFR source). Add PBS to final volume of 100 μL per well. Incubate 30 minutes while shaking.
7. At this point, drugs or extracts are added to the wells. Dilute drugs/extracts 1:100 (unless specified otherwise) in TBS+10% DMSO in 96-well polypropylene plates. Add 120 μL TBS to ELISA plate containing captured EGFR. […] Incubate plate 30 minutes while shaking.
8. […] (150 μL final volume in well with 3 μM ATP/5 mM MnCl2 final concentration in well.) Incubate 5 minutes while shaking vigorously.
9. […]
17. Read assay on Dynatech MR7000 elisa reader.
The IC50 values measured in the above assay for the compound of formula VI are depicted in Table 2: […]
In general terms: An ELISA detects its analyte on a solid surface through an enzyme-linked reagent.

Chain of EGFR (P00533 25-1210): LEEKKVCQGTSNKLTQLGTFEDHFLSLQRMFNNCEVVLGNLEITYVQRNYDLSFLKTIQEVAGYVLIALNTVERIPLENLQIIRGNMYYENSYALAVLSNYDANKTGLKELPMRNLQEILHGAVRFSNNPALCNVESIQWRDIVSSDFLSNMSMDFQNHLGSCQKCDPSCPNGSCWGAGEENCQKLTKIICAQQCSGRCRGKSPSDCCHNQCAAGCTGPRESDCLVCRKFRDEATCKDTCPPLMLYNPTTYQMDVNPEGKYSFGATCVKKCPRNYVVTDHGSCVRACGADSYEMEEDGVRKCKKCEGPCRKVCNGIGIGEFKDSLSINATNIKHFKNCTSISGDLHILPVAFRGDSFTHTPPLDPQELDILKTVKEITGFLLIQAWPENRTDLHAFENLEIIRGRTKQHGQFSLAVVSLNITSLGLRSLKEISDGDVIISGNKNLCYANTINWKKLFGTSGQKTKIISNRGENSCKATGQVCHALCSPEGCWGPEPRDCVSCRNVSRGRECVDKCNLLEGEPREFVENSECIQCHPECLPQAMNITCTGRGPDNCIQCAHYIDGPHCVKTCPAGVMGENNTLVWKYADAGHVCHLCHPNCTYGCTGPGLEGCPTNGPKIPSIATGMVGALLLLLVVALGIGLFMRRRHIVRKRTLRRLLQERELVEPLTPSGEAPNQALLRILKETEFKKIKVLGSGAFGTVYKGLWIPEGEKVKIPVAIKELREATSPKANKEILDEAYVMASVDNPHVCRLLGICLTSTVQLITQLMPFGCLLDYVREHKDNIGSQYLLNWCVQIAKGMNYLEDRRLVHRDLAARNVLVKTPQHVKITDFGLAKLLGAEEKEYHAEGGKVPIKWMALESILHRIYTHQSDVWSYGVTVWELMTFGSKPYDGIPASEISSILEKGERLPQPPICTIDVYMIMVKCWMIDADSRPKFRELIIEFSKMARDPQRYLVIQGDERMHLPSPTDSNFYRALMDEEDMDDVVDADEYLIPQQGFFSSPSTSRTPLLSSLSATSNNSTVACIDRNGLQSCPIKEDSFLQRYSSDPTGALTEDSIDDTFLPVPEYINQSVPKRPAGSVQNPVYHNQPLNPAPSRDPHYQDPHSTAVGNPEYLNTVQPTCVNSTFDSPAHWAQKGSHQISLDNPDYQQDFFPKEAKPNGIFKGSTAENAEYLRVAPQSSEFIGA

`Cc1cc(/C=C2/C(=O)Nc3ccccc32)c(C)c2c1[nH]c1ccccc12` [VI] displayed an IC50 above 50 µM.

The record behind these values is patent US6514981B1, “Methods of modulating tyrosine protein kinase function with indolinone compounds” (Sugen, Inc., priority 1998, dated 2003).
